Measured values published in PubChem BioAssay AID1645848.
Values after ≈ are worked out from the molar mass of the structure shown.

conditions: buffer; pH 7.4; 6.0 h; 150.0 µM

| Structure (SMILES) | solubility kinetic |
| --- | --- |
| Fc1ccc(Nc2nc(-c3ccncc3)cc3ccccc23)cc1F | 1.26 µg/mL (≈ 3.79 µM) |
| Cc1ccc(C)c(S(=O)(=O)NCC2CN(Cc3ccccc3)CCO2)c1 (stereo not drawn) | > 55 µg/mL |
| O=C(NC1CC1)c1nc(-c2cccnc2)c2ccccn12 | > 62 µg/mL |
| COc1ccccc1C(=O)NC1CCCc2c1[nH]c1c(Cl)cccc21 (stereo not drawn) | < 1 µg/mL |
| Cc1ccc(-c2cc(C(=O)Nc3ccc(S(=O)(=O)N(C)C)cc3)c3ccccc3n2)cc1C | < 1 µg/mL |
| CN(C)CCCN1c2ccc(O)cc2Sc2ccc(Cl)cc21 | > 49 µg/mL |
| Fc1cc(Nc2nc(-c3ccncc3)nc3ccccc23)ccc1-c1cc(F)c(F)c(F)c1 | < 1 µg/mL |
| NC(=O)C1CCN(c2ncc(-c3cccc(N4CCCCC4)c3)s2)CC1 | 32.9 µg/mL (≈ 88.8 µM) |
| COc1ccc(-c2ccc3nc(-c4cc(C)cc(C)c4)oc3c2)c(OC)c1OC | < 1 µg/mL |
| Nc1ccccc1OCCn1c(CCNC(=O)C2CCCCC2)nc2ccccc21 | 44.5 µg/mL (≈ 109 µM) |
| NC(=O)C1CCN(c2nc(-c3cccs3)cs2)CC1 | > 43 µg/mL |
| FC(F)(F)c1ccccc1-c1nc(NCc2cccs2)c2ccccc2n1 | < 1 µg/mL |
| COc1ccc(-c2ccc3nc(-c4cc(F)ccc4F)oc3c2)c(OC)c1OC | < 1 µg/mL |
| Cn1cnc(-c2nccc3c(=O)[nH]c(OCCCC(F)(F)F)nc23)c1 | > 52 µg/mL |
| CCN(CC)C(=O)c1ccc(O)c(OC)c1 | 27.3 µg/mL (≈ 122 µM) |
| c1ccc(C2=Nn3c(nnc3-c3ccncc3)SC2)cc1 | 8.9 µg/mL (≈ 30.3 µM) |
| Cc1cc(SCc2sc(-c3ccc(C(F)(F)F)cc3)nc2C)ccc1OCC(=O)O | > 67 µg/mL |
| CCOC(=O)c1nnc(N[S+](=O)([O-])c2ccc(NC(=O)Cc3ccc(Cl)c(Cl)c3)cc2)s1 | > 76 µg/mL |
| COc1cccc(CNC(=O)c2c(OC)cc(=O)n3c2CCN(C(=O)c2ccc(C)cc2C)CC3)c1 | > 72 µg/mL |
| O=S(=O)(Nc1nccs1)c1ccc(NCc2ccccc2)cc1 | 31.9 µg/mL (≈ 92.4 µM) |
| CCCNC(=O)c1ccc2c(c1)N=C(C)c1c(C)ccc(C)c1S2 | 2.73 µg/mL (≈ 8.08 µM) |
| COc1cccc(CN2CCNc3cc(Nc4ccccc4)ncc3C2)c1 | 49.9 µg/mL (≈ 139 µM) |
| NC(=O)c1cccc(-c2cc(Nc3ccc(OC(F)(F)F)cc3)ncn2)c1 | < 1 µg/mL |
| Cc1nnc(-c2ccccc2C(C)C)nc1NCc1ccc(-c2cccnc2)cc1 | < 1 µg/mL |
| COc1ccc(NC(=O)c2[nH]c(C)c(C(C)=O)c2C)cc1S(=O)(=O)Nc1cccc(C#N)c1 | 2.28 µg/mL (≈ 4.9 µM) |

| Structure (SMILES) | solubility kinetic |
| --- | --- |
| CCCN1CNc2c(c(=O)[nH]c(=S)n2CCc2ccc(OC)c(OC)c2)C1 | > 58 µg/mL |
| COc1ccc(-c2cnc(N3CCC(C(N)=O)CC3)s2)cc1OC | 18.8 µg/mL (≈ 54 µM) |
| CC(C)Oc1ccc(C(=O)Nc2ccc3c(c2)CCCN3C(=O)c2cccs2)cc1 | < 1 µg/mL |
| COc1ccc(N(C)C(=O)c2cc3c(s2)-c2ccccc2OC3)cc1 | < 1 µg/mL |
| C#CCNC(=O)c1nc(-c2cccnc2)c2ccccn12 | > 61 µg/mL |
| O=C(Nc1nc(-c2ccccc2)cs1)c1ccncc1NS(=O)(=O)c1cccc2cccnc12 | 39.8 µg/mL (≈ 81.6 µM) |
| NC[C@H](O)c1ccc(O)c(O)c1 | > 25 µg/mL |
| CCC(Sc1nc2ccccc2c2nc(CCc3c(C)n[nH]c3C)nn12)C(=O)Nc1ccc(F)cc1 (stereo not drawn) | < 1 µg/mL |
| O=S(=O)(Nc1ccc(-c2ccccc2)cc1)c1ccc(NCc2cccc(Cl)c2O)cc1 | < 1 µg/mL |
| NC(=O)NCC(=O)N[C@H]1CC[C@H](Nc2nccc(-c3ccncc3)n2)C1 | > 35 µg/mL |
| CNc1nc(C#N)c(-c2cccc3ccccc23)o1 | < 1 µg/mL |
| COc1cccc(C(=O)NCCSc2c(-c3ccc(F)cc3)[nH]c3ccccc23)c1OC | < 1 µg/mL |
| Fc1ccc(-c2csc3ncnc(Sc4nnnn4C4CC4)c23)cc1 | 2.91 µg/mL (≈ 7.85 µM) |
| Cc1sc(NC(=O)Cc2ccc3c(c2)OCO3)nc1-c1ccc2c(c1)CCN2C(=O)c1ccccc1F | < 1 µg/mL |
| CCc1cccc(NC(=O)C(Cc2ccccc2)NS(=O)(=O)c2cccs2)c1 (stereo not drawn) | < 1 µg/mL |
| O=S(=O)(c1ccccc1)N1CCN(c2nc(-c3ccc(Br)cc3)cs2)CC1 | 1.23 µg/mL (≈ 2.66 µM) |
| CC[C@H](NC(=O)c1c(O)c(-c2ccccc2)nc2ccccc12)c1ccccc1 | 31.7 µg/mL (≈ 82.8 µM) |
| CCOc1ccc(CCNC(=O)c2cc3ccccc3n2Cc2ccccn2)cc1OCC | < 1 µg/mL |
| Cc1ccc(S(=O)(=O)Nc2cnccc2C(=O)Nc2ccc(-c3nc4ccccc4[nH]3)cc2)cc1 | < 1 µg/mL |
| COc1ccc(-n2nc(C)c([C@@H]3C=C[C@@H](NCc4cccc(Cl)c4)C3)c2C)cc1 | 46.2 µg/mL (≈ 113 µM) |
| Fc1ccccc1-c1ccc(Nc2nc(-c3ccncc3)nc3ccccc23)cc1F | < 1 µg/mL |
| NC1CCN(C(=O)C2CCCN(c3nc(-c4ccccc4)nc4c3CCC4)C2)CC1 (stereo not drawn) | > 40 µg/mL |
| O=C(c1nc(-c2ccc(Cl)nc2)c2ccccn12)N1CCCC1 | 2.73 µg/mL (≈ 8.36 µM) |
| COc1ccc(CN2CCc3c(c(=O)n4ncc(C(=O)N5CCN(c6ccccc6OC)CC5)c4n3C)C2)cc1 | 14.2 µg/mL (≈ 26.1 µM) |
| NC(=O)C1CCN(c2nccc(-c3ccc4c(c3)OCCO4)n2)CC1 | > 50 µg/mL |

| Structure (SMILES) | solubility kinetic |
| --- | --- |
| Cc1ccc(N2CCC(CNc3nc(-c4ccccc4C(C)C)ncc3C)CC2)cn1 | 19.8 µg/mL (≈ 47.7 µM) |
| COc1ccccc1C(=O)Nc1ccccc1C(=O)Nc1cccc(SC(F)(F)F)c1 | < 1 µg/mL |
| Cc1ccccc1C(C(=O)NC1CCCCC1)N(C(=O)Cn1ccnc1C)c1cccc(F)c1 (stereo not drawn) | 3.13 µg/mL (≈ 6.76 µM) |
| NC(=O)c1cnc(N[C@@H]2CCCC[C@@H]2N)nc1Nc1cccc(-n2nccn2)c1 | > 39 µg/mL |
| Cc1ccnc(C)c1C(=O)Nc1cccc([S+](=O)([O-])N(C)C)c1 | > 49 µg/mL |
| Cc1ccc(NC(=O)N(Cc2cn(C)c3ccccc23)C2CCCCC2)cc1C | 2.37 µg/mL (≈ 6.08 µM) |
| NC(=O)COc1cccc(C2CC(=O)Nc3nc(N4CCCCC4)sc32)c1 (stereo not drawn) | > 57 µg/mL |
| CC(C)n1cc(-c2ccc3c(c2)N(C)CC3)c2c(NS(=O)(=O)c3ccn(C)n3)ccnc21 | 36.7 µg/mL (≈ 81.5 µM) |
| O=C(COC(=O)CCC(=O)c1cccs1)NCc1ccco1 | > 47 µg/mL |
| CCCc1nnc(NC(=O)c2nc(S(=O)(=O)Cc3ccc(C)cc3)ncc2Cl)s1 | > 67 µg/mL |
| OC1(CN2CCN(c3ccc(F)c(Cl)c3)CC2)CCCNC1 (stereo not drawn) | > 48 µg/mL |
| c1ccc(Nc2cc3c(cn2)CN(Cc2c[nH]c4ccccc24)CCN3)cc1 | 43.7 µg/mL (≈ 118 µM) |
| CC(C)c1ccccc1-c1ncc(F)c(NCc2ccc(-c3ccn[nH]3)cc2)n1 | < 1 µg/mL |
| OCc1ccc(-c2ccc(-c3ccc(CO)s3)o2)s1 | > 43 µg/mL |
| CC1=C(C(=O)Nc2nncs2)C(c2[nH]ncc2Cl)N=C(Nc2nc3ccccc3o2)N1 (stereo not drawn) | 34.6 µg/mL (≈ 75.8 µM) |
| Cc1ccc(-n2nc(C)c3c(-c4ccc(O)c(O)c4)c(C#N)c(N)nc32)cc1C | 1.81 µg/mL (≈ 4.7 µM) |
| COc1cc(C(=O)N2CCN(c3cc(Cl)ccc3Cl)CC2)cc(OC)c1OC | < 1 µg/mL |
| Clc1ccccc1-c1nc(NCc2ccc(-c3cccnc3)cc2)c2ccccc2n1 | < 1 µg/mL |
| CCc1ccccc1Nc1ncnc2c1cnn2-c1ccc(Cl)cc1 | < 1 µg/mL |
| Cc1ccc(N(C)S(=O)(=O)c2ccc(-c3cnc(C4CC4)o3)cc2)cc1 | < 1 µg/mL |
| COCCNc1ncc(-c2cccc(O)c2)c2c1OCC2 | > 85 µg/mL |
| CCc1cccc(NS(=O)(=O)c2ccc3c(c2)CC(C)N3C(=O)C2CC2)c1 (stereo not drawn) | < 1 µg/mL |
| CC(=O)c1c(C)[nH]c(C(=O)Nc2cccc([S+](=O)([O-])N3CCC(F)(F)CC3)c2)c1C | 8.98 µg/mL (≈ 20.4 µM) |
